How the values were obtained:
[1] = target: Cathepsin D (Homo sapiens, UniProt P07339); assay: Inhibition of cathepsin-D (unknown origin) using C-terminal biotinylated peptide substrate treated 30 mins before addition of peptide substrate measured after 110 mins by fluorescence polarization assay
[2] = target: Beta-secretase 1 (Homo sapiens, UniProt P56817); assay: Inhibition of recombinant BACE-1 (unknown origin) expressed in Escherichia coli using biotinylated peptide substrate treated 20 mins before substrate addition measured after 3 hrs by fluorescence polarization assay
[3] = Apparent permeability of the compound from apical to basolateral side of MDCK2 cells at 5 uM after 120 mins by LC/MS/MS analysis; type: ADME, cell-based, Canis lupus familiaris, MDCK-II; conditions: dog, MDCK
[4] = Lipophilicity, log P of the compound; type: physicochemical; conditions: octanol/water
[5] = Dissociation constant, pKa of the compound; type: physicochemical

Chain of Beta-secretase 1 (P56817 whole entry): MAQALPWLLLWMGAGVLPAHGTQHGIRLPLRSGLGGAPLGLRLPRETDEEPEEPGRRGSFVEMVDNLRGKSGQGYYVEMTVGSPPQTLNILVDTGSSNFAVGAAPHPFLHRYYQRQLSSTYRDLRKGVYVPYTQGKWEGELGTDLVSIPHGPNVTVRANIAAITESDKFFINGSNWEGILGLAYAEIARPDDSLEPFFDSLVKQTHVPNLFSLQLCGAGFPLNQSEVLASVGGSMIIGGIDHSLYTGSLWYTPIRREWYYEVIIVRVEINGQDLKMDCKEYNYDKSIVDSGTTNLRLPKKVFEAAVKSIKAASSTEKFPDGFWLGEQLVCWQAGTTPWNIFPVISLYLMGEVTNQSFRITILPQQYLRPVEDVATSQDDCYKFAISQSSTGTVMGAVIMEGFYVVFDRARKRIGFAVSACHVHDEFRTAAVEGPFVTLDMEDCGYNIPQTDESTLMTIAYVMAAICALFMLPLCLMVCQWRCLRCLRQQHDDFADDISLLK
Chain of Cathepsin D (P07339 65-162 limits assumed): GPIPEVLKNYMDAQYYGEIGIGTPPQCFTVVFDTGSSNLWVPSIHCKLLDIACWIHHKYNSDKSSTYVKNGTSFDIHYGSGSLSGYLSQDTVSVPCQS
Chain of Cathepsin D (P07339 169-412 limits assumed): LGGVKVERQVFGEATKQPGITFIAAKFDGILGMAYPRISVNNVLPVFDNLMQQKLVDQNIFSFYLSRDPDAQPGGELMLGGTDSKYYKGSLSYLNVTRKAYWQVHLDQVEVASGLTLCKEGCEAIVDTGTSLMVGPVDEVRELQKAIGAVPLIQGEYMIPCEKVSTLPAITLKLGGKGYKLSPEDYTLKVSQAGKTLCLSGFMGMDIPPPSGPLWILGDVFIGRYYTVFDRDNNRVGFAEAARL

SMILES: CC(=O)N[C@@H](Cc1cc(F)cc(F)c1)[C@H](O)CN[C@H]1CCN(C)c2ccc(CC(C)(C)C)cc21
- IC50 [1]: 68 nM
- IC50 [2]: 643 nM

SMILES: CC(=O)N[C@@H](Cc1cc(F)cc(F)c1)[C@H](O)CN[C@H]1CCOc2ccc(CC(C)(C)C)cc21
- IC50 [1]: 12 nM
- Papp A→B at 2 h, 5 µM [3]: 3 ×10⁻⁶ cm/s
- IC50 [2]: 46 nM

SMILES: CC(=O)N[C@@H](Cc1cc(F)cc(F)c1)[C@H](O)CN[C@H]1COCc2ccc(CC(C)(C)C)cc21
- IC50 [2]: 19700 nM

SMILES: CCc1ccc2c(c1)[C@@H](NC[C@@H](O)[C@H](Cc1cc(F)cc(F)c1)NC(C)=O)CS(=O)(=O)C2
- logP [4]: 3.2
- IC50 [1]: 2840 nM
- Papp A→B at 2 h, 5 µM [3]: 0.3 ×10⁻⁶ cm/s
- IC50 [2]: 116 nM
- pKa [5]: 5.8

SMILES: CC(=O)N[C@@H](Cc1cc(F)cc(F)c1)[C@H](O)CN[C@H]1CS(=O)(=O)Cc2ccc(C(C)C)cc21
- IC50 [1]: 940 nM
- IC50 [2]: 127 nM

SMILES: CC(=O)N[C@@H](Cc1cc(F)cc(F)c1)[C@H](O)CN[C@H]1CS(=O)(=O)Cc2ccc(CC(C)(C)C)cc21
- IC50 [1]: 362 nM
- IC50 [2]: 42 nM

SMILES: CC(=O)N[C@@H](Cc1cc(F)cc(F)c1)[C@H](O)CN[C@H]1CCOc2ccc(CC(C)(C)F)cc21
- IC50 [1]: 80 nM
- Papp A→B at 2 h, 5 µM [3]: 8.3 ×10⁻⁶ cm/s
- IC50 [2]: 148 nM

SMILES: CC(=O)N[C@@H](Cc1cc(F)cc(F)c1)[C@H](O)CN[C@H]1CCOc2ccc(CC(C)(F)F)cc21
- IC50 [1]: 144 nM
- Papp A→B at 2 h, 5 µM [3]: 14.6 ×10⁻⁶ cm/s
- IC50 [2]: 186 nM

SMILES: CC(=O)N[C@@H](Cc1cc(F)cc(F)c1)[C@H](O)CN[C@H]1CCOc2ccc(CC(C)(C)C#N)cc21
- IC50 [1]: 70 nM
- Papp A→B at 2 h, 5 µM [3]: 6.4 ×10⁻⁶ cm/s
- IC50 [2]: 60 nM

SMILES: CC(=O)N[C@@H](Cc1cc(F)cc(F)c1)[C@H](O)CN[C@H]1CCOc2ccc(CC(C)(C)C(F)F)cc21
- IC50 [1]: 478 nM
- IC50 [2]: 1300 nM

SMILES: CC(=O)N[C@@H](Cc1cc(F)cc(F)c1)[C@H](O)CN[C@H]1CCOc2ccc(OC(C)C)cc21
- IC50 [1]: 429 nM
- Papp A→B at 2 h, 5 µM [3]: 11.2 ×10⁻⁶ cm/s
- IC50 [2]: 414 nM

SMILES: CC(=O)N[C@@H](Cc1cc(F)cc(F)c1)[C@H](O)CN[C@H]1CCOc2ccc(OC3CCCC3)cc21
- IC50 [1]: 145 nM
- IC50 [2]: 221 nM

SMILES: CC(=O)N[C@@H](Cc1cc(F)cc(F)c1)[C@H](O)CN[C@H]1CC(C)(C)Oc2ccc(CC(C)(C)C)cc21
- IC50 [1]: 18 nM
- Papp A→B at 2 h, 5 µM [3]: 0.3 ×10⁻⁶ cm/s
- IC50 [2]: 8 nM

SMILES: CCC[C@@]1(C)C[C@H](NC[C@@H](O)[C@H](Cc2cc(F)cc(F)c2)NC(C)=O)c2cc(CC(C)(C)C)ccc2O1
- IC50 [1]: 1 nM
- IC50 [2]: 6 nM

SMILES: CCC[C@]1(C)C[C@H](NC[C@@H](O)[C@H](Cc2cc(F)cc(F)c2)NC(C)=O)c2cc(CC(C)(C)C)ccc2O1
- IC50 [1]: 2 nM
- IC50 [2]: 15 nM

SMILES: CC(=O)N[C@@H](Cc1cc(F)cc(F)c1)[C@H](O)CN[C@H]1CC2(COC2)Oc2ccc(CC(C)(C)C)cc21
- IC50 [1]: 22500 nM
- IC50 [2]: 27100 nM

SMILES: CC(=O)N[C@@H](Cc1cc(F)cc(F)c1)[C@H](O)CN[C@H]1CC(C)(C)Oc2ccc(CC(C)(F)F)cc21
- IC50 [1]: 16 nM
- Papp A→B at 2 h, 5 µM [3]: 1.7 ×10⁻⁶ cm/s
- IC50 [2]: 9 nM

SMILES: CC(=O)N[C@@H](Cc1cc(F)cc(F)c1)[C@H](O)CN[C@H]1CC(C)(C)Oc2ccc(CC(C)(C)C#N)cc21
- IC50 [1]: 8 nM
- Papp A→B at 2 h, 5 µM [3]: 2.5 ×10⁻⁶ cm/s
- IC50 [2]: 6 nM

SMILES: CC(=O)N[C@@H](Cc1cc(F)cc(F)c1)[C@H](O)CN[C@H]1CC(C)(C)Oc2ccc(OC(F)(F)F)cc21
- IC50 [1]: 59 nM
- Papp A→B at 2 h, 5 µM [3]: 1.2 ×10⁻⁶ cm/s
- IC50 [2]: 89 nM

SMILES: CC(=O)N[C@@H](Cc1cc(F)cc(F)c1)[C@H](O)CN[C@H]1CC(C)(C)Oc2ccc(OC(C)(C)C)cc21
- IC50 [1]: 374 nM
- Papp A→B at 2 h, 5 µM [3]: 1.1 ×10⁻⁶ cm/s
- IC50 [2]: 690 nM

SMILES: CC(=O)N[C@@H](Cc1cc(F)cc(F)c1)[C@H](O)CN[C@H]1CCCc2ccc(CC(C)(C)C)cc21
- logP [4]: 4.9
- IC50 [1]: 8 nM
- Papp A→B at 2 h, 5 µM [3]: 0.3 ×10⁻⁶ cm/s
- IC50 [2]: 45 nM
- pKa [5]: 8.9

SMILES: CC(=O)N[C@@H](Cc1cc(F)cc(F)c1)[C@H](O)CN[C@H]1CCCc2ccc(Cc3ccccc3)cc21
- IC50 [1]: 251 nM
- IC50 [2]: 4700 nM

SMILES: CCc1ccc2c(c1)[C@@H](NC[C@@H](O)[C@H](Cc1cc(F)cc(F)c1)NC(C)=O)CCC2
- IC50 [1]: 126 nM
- IC50 [2]: 538 nM

SMILES: CCCCc1ccc2c(c1)[C@@H](NC[C@@H](O)[C@H](Cc1cc(F)cc(F)c1)NC(C)=O)CCC2
- IC50 [1]: 77 nM
- IC50 [2]: 574 nM

SMILES: CC(=O)N[C@@H](Cc1cc(F)cc(F)c1)[C@H](O)CN[C@H]1CCCc2ccc(CC(C)C)cc21
- IC50 [2]: 93 nM

SMILES: CC(=O)N[C@@H](Cc1cc(F)cc(F)c1)[C@H](O)CN[C@H]1CCCc2ccc(C(C)(C)C)cc21
- IC50 [1]: 74 nM
- IC50 [2]: 378 nM

SMILES: CC(=O)N[C@@H](Cc1cc(F)cc(F)c1)[C@H](O)CN[C@H]1CCOc2ccc(OC3CCCO3)cc21 (mixture of isomers)
- IC50 [1]: 286 nM
- Papp A→B at 2 h, 5 µM [3]: 11 ×10⁻⁶ cm/s
- IC50 [2]: 1320 nM

SMILES: CC(=O)N[C@@H](Cc1cc(F)cc(F)c1)[C@H](O)CN[C@H]1CCOc2ccc(OC3CCOC3)cc21 (mixture of isomers)
- IC50 [1]: 255 nM
- Papp A→B at 2 h, 5 µM [3]: 7.1 ×10⁻⁶ cm/s
- IC50 [2]: 858 nM

SMILES: COC[C@@]1(C)C[C@H](NC[C@@H](O)[C@H](Cc2cc(F)cc(F)c2)NC(C)=O)c2cc(CC(C)(C)C)ccc2O1 (mixture of isomers)
- IC50 [1]: 5 nM
- IC50 [2]: 9 nM

SMILES: CC(=O)N[C@@H](Cc1cc(F)cc(F)c1)[C@H](O)CN[C@H]1CC2(CC2)Oc2ccc(CC(C)(C)C)cc21 (mixture of isomers)
- IC50 [1]: 6 nM
- IC50 [2]: 22 nM

From ChEMBL document CHEMBL2406984, “Design and synthesis of hydroxyethylamine (HEA) BACE-1 inhibitors: prime side chromane-containing inhibitors” (Bioorg Med Chem Lett, 2013)
